Measured values: patent US9302993B2, “8-hydroxy quinoline derivatives” (PRANA BIOTECHNOLOGY LIMITED, priority 2002, dated 2016)
Like-named read-outs stand apart in the source and are kept apart here.

Experiments:
[1] = tested on: Aβ in extract of tissue from post mortem human AD brain; assay: Human brain amyloid solubilisation assay (Assay 9, BAS); type: biochemical
Protocol: Assay 9. Human Brain Amyloid Solubilisation Assay
This assay was performed in order to assess the ability of a test compound to mobilise Aβ from the insoluble to the soluble phase of an extract of tissue from post mortem human AD brain.
Up to 0.5 g of plaque-bearing cortex without meninges was homogenized using a DIAX 900 homogenizer (Heudolph and Co, Kelheim, Germany) or other suitable device for three 30-second periods at full speed in 2 ml of ice-cold phosphate-buffered saline, pH 7.4. To obtain the phosphate-buffered saline-extractable fraction, the homogenate was centrifuged at 100,000×g for 30 min and the supernatant removed. Alternatively, the tissue was freeze dried then pulverised to form a powder which was then weighed out into aliquots for extraction as above. Supernatant, either freeze-dried and resuspended or in unconcentrated form, was dissolved in 200 μl of Tris-Tricine sodium dodecyl sulfate (SDS) sample buffer pH 8.3 containing 8% SDS, 10% 2-mercaptoethanol. Aliquots (10 μl) were then boiled for 10 minutes before SDS-polyacrylamide gel electrophoresis. The insoluble fraction of the cortical samples was obtained by resuspending the initial pelleted sample in 1 ml of phosphate-buffered saline. A 50-μl aliquot of this suspension was then boiled in […] of sample buffer as above.
Tris-Tricine polyacrylamide gel electrophoresis was performed by loading appropriately diluted samples on to 10% to 20% gradient gels (Novex, San Diego, Calif.) followed by transfer on to 0.2-μm nitrocellulose membrane (Bio-Rad, Hercules, Calif.). Aβ was detected by using monoclonal antibody W02, which detects residues 5 through 8, […] (or another suitable antibody) in conjunction with horseradish peroxidase-conjugated rabbit anti-mouse IgG (Dako, Denmark), and visualized by using enhanced chemiluminescence (eg ECL; Amersham Life Science, Buckinghamshire, UK). Each gel included three lanes containing 0.5, 1, and 2 ng of synthetic Aβ40 (Keck Laboratory, Yale University, New Haven, Conn.) as reference standards.
Blot films were scanned by using a suitable imaging system such as the UVP gel documentation system, and densitometry performed using suitable software, eg UVP Labworks. The dynamic range of the film/scanner was determined by using a step tablet (No. 911ST600, Kodak, Rochester N.Y.), a calibrated film exposed by the manufacturer to provided steps of known increasing intensity. The quantifiable range of signal intensity for densitometric analysis of the mono- and dimeric Aβ bands was based on the comparison with a curve obtained by scanning and densitometry of the step tablet.
All samples were analysed at least twice, and gel loadings and dilutions were adjusted to fit within the quantifiable region of the standard curve. […] The insoluble Aβ being comprised of the pelletable fraction derived from the insoluble amyloid plaque from the above cortical samples and the soluble fraction comprising monomeric and/or oligomeric soluble Aβ.

[2] = tested on: Neuronal cortical cells treated with Aβ1-42; assay: Assay for Aβ neurotoxicity and Aβ neuroprotection (Assay 3(c)); type: cell-based, mouse; conditions: 20 uM Aβ1-42, 4 days, MTS
Protocol: (§1) Media was then replaced with Neurobasal media (Invitrogen Life Technologies) and B27 supplements (Invitrogen Life Technologies). Cultures were maintained at 37° C. in 5% CO2. Prior to experimentation, the culture medium was replaced with Neurobasal media and B27 minus antioxidants (Invitrogen Life Technologies).
(c) Assay for Aβ Neurotoxicity and Aβ Neuroprotection
Neuronal cortical cells were cultured for five days as per Assay 2. On day six the neurobasal (NB) media (Invitrogen Life Technologies) and B27 supplement (Invitrogen Life Technologies) were replaced with NB media and B27 supplement (no antioxidants). On day six, test compounds were individually added to the neuronal cell cultures:
Aβ was initially dissolved in 20 mM NaOH to a concentration of 1 mM and sonicated for 5 minutes. The peptide was then diluted in H2O and 10×PBS to a final concentration of 200 uM Aβ in 1×PBS. The peptide was again sonicated for 5 minutes and then spun at 14000 rpm for 5 min and transferred to a fresh tube.
The test compounds were dissolved in 100% DMSO to a concentration of 2.5 mM (10 mM if excess compound was weighed out per vial—then diluted to 2.5 mM). […] Test compounds were not added directly to cells, instead they were added to a 48 well ‘Drug Plate’ as comprised below:
(§2) The Drug Plate was incubated at 37° C. for 15 mins. 200 ul of each well was added in triplicate to the corresponding cell plate. The cell plate was incubated at 37 C, for 4 days.
On the 4th day after treating the cells the assay is completed by adding MTS to the cells.

Neuronal cortical cells = assay: Assay for test compound cytoxicity, MTS (Assay 3(d)); type: cell-based, mouse
Protocol: as §1
Cell viability is determined using the MTS assay. Culture medium is […] replaced with fresh neurobasal medium plus B27 supplements minus antioxidants. 1/10th volume MTS solution (Cell Titre 96 Aqueous One, Promega Corporation) and incubated at 37° C., 2 hrs. 200 microliter aliquots are measured with a spectrophotometer at 560 nm.
(d) Assay for Test Compound Cytoxicity
Neuronal cortical cells were cultured for five days as per Assay 2 in NB media and B27 supplement.
On day six the test compounds were added to the neuronal cell cultures in NB media and B27 supplement minus antioxidants.
Test compounds were dissolved in 100% DMSO to a concentration of 2.5 mM (10 mM if excess compound was weighed out per vial—then diluted to 2.5 mM). […] Test compounds were not added directly to cells, instead they were added to a 48 well ‘Drug Plate’ as comprised below:
as §2
On completion of the assay, 1/10 volume MTS was added per well of plate (ie 25 ul/250 ul). The plates were incubated at 37 C for 2 hrs, and then absorbance was read at 560 nm.

[3] = biological target: T1, hydrogen peroxide generation by Aβ in the presence of copper (Homo sapiens, UniProt P05067); assay: Fluorometric H2O2 assay (Assay 1); type: biochemical; conditions: Aβ 1-42 with Cu-Gly, DCF/HRP, 37 C 60 min; several values in one cell = repeat determinations; read-out: Peroxide IC50
T1 construct: The reaction solutions contained Aβ 1-42 at concentrations in the range of 50 nM to 1 μM
T1 sequence (P05067 672-713 limits assumed): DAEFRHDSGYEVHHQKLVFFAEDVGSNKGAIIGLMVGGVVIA
Protocol: Assay 1. Fluorometric H2O2 Assay
A fluorometric assay was used to test the ability of a test compound to inhibit hydrogen peroxide generation by Aβ in the presence of copper based on dichlorofluoroscein diacetate (DCF; Molecular Probes, Eugene Oreg.). The DCF solution (5 mM) in 100% dimethyl sulphoxide (previously purged with argon for 2 hr at 20° C.) was deacetylated in the presence of 0.25M NaOH for 30 min and neutralised at pH 7.4 to a final concentration of 1 mM. Horseradish peroxidase (HRP) stock solution was prepared to 1 μM at pH 7.4. The reactions were carried out in PBS, pH 7.4 in a 96 well plate (total volume=250 μl/well). The reaction solutions contained Aβ 1-42 at concentrations in the range of 50 nM to 1 μM, copper-glycine chelate (Cu-Gly), was prepared by adding CuCl2 to glycine in the ratio of 1:6 and added to the Aβ in the proportion 2Cu-Gly: 1Aβ), reducing agents including dopamine (5 μM) or ascorbic acid, deacetylated DCF 100 μM, and HRP, 0.1 μM. […] The reaction mixture was incubated at 37 C for 60 min. […] H2O2 concentration may be established by comparing fluorescence with the H2O2 standards. Inhibition of AB H2O2 production was assayed by including a given concentration of test compound(s) in the test wells.

[4] = solubilising plaques relative to PBS
[5] = BL6J×129sv, mouse, 4 days, 1 uM
[6] = BL6J×129sv, mouse, 4 days, 10 uM

Oc1c(-c2ccccc2C(F)(F)F)cc(Cl)c2cccnc12 [compound 864]
BAS Score [1, 4]: +
% inhibition Abeta toxicity [2]: 13%
Test Compound Cytoxicity 0.1 um (Neuronal cortical cells; BL6J×129sv, mouse, 4 days): 100%
Test Compound Cytoxicity 1 uM (Neuronal cortical cells; [5]): 88
Test Compound Cytoxicity 10 uM (Neuronal cortical cells; [6]): 37
Viable 10 uM (Neuronal cortical cells; [6]): 93.12

O=C(CNC(=O)c1cc(O)c2cccc(O)c2n1)NCCc1c[nH]cn1 [compound 987]
BAS Score [1, 4]: +
% inhibition Abeta toxicity [2]: 5%
Test Compound Cytoxicity 0.1 um (Neuronal cortical cells; BL6J×129sv, mouse, 4 days): 92%
Test Compound Cytoxicity 1 uM (Neuronal cortical cells; [5]): 90
Test Compound Cytoxicity 10 uM (Neuronal cortical cells; [6]): 87
Viable 10 uM (Neuronal cortical cells; [6]): 89.03

Nc1ccccc1NC(=O)c1cc(O)c2cccc(O)c2n1 [compound 986]
BAS Score [1, 4]: +
% inhibition Abeta toxicity [2]: 7%
Test Compound Cytoxicity 0.1 um (Neuronal cortical cells; BL6J×129sv, mouse, 4 days): 96%
Test Compound Cytoxicity 1 uM (Neuronal cortical cells; [5]): 85
Test Compound Cytoxicity 10 uM (Neuronal cortical cells; [6]): 60
Viable 10 uM (Neuronal cortical cells; [6]): 81.73

Cc1cc(C)c2cccnc2c1O [compound 59]
BAS Score [1, 4]: +
% inhibition Abeta toxicity [2]: 22%
Test Compound Cytoxicity 0.1 um (Neuronal cortical cells; BL6J×129sv, mouse, 4 days): 89%
Test Compound Cytoxicity 1 uM (Neuronal cortical cells; [5]): 97
Test Compound Cytoxicity 10 uM (Neuronal cortical cells; [6]): 55

Oc1cccc2ccc(-c3ccccn3)nc12 [compound 1006]
BAS Score [1, 4]: ++
% inhibition Abeta toxicity [2]: 7%
Test Compound Cytoxicity 1 uM (Neuronal cortical cells; [5]): 92
Test Compound Cytoxicity 10 uM (Neuronal cortical cells; [6]): 52

CN(CCc1ccccn1)Cc1ccc2cccc(O)c2n1 [compound 990]
BAS Score [1, 4]: +
% inhibition Abeta toxicity [2]: 18%
Test Compound Cytoxicity 0.1 um (Neuronal cortical cells; BL6J×129sv, mouse, 4 days): 95%
Test Compound Cytoxicity 1 uM (Neuronal cortical cells; [5]): 88
Test Compound Cytoxicity 10 uM (Neuronal cortical cells; [6]): 57
Viable 10 uM (Neuronal cortical cells; [6]): 57.45

Oc1c(Cl)cc(Cl)c2cc(Cl)cnc12 [compound 1058, 3,5,7-trichloro-8-hydroxyquinoline]
IC50 [3]: 680 nM
% inhibition Abeta toxicity [2]: 30%
Test Compound Cytoxicity 1 uM (Neuronal cortical cells; [5]): 82.47
Test Compound Cytoxicity 10 uM (Neuronal cortical cells; [6]): 54.60
Viable 10 uM (Neuronal cortical cells; [6]): 54.60

NCc1ccc2cccc(O)c2n1 [compound 968]
BAS Score [1, 4]: ++
% inhibition Abeta toxicity [2]: 6%
Test Compound Cytoxicity 0.1 um (Neuronal cortical cells; BL6J×129sv, mouse, 4 days): 103%
Test Compound Cytoxicity 1 uM (Neuronal cortical cells; [5]): 87
Test Compound Cytoxicity 10 uM (Neuronal cortical cells; [6]): 82
Viable 10 uM (Neuronal cortical cells; [6]): 97.12

NC(=O)c1ccc2c(Cl)cc(Cl)c(O)c2n1 [compound 1037]
IC50 [3]: > 10000 nM
% inhibition Abeta toxicity [2]: 4%
Test Compound Cytoxicity 1 uM (Neuronal cortical cells; [5]): 88
Test Compound Cytoxicity 10 uM (Neuronal cortical cells; [6]): 87

Oc1c(Br)cc(-c2cc(F)cc(F)c2)c2cccnc12 [compound 853]
BAS Score [1, 4]: +
% inhibition Abeta toxicity [2]: 31%
Test Compound Cytoxicity 0.1 um (Neuronal cortical cells; BL6J×129sv, mouse, 4 days): 93%
Test Compound Cytoxicity 1 uM (Neuronal cortical cells; [5]): 79
Test Compound Cytoxicity 10 uM (Neuronal cortical cells; [6]): 39
Viable 10 uM (Neuronal cortical cells; [6]): 94.79

O/N=C/c1ccc2cccc(O)c2n1 [compound 969, 8-Hydroxy-quinoline-2-carboxaldehyde Oxime]
BAS Score [1, 4]: +
% inhibition Abeta toxicity [2]: 2%
Test Compound Cytoxicity 0.1 um (Neuronal cortical cells; BL6J×129sv, mouse, 4 days): 91%
Test Compound Cytoxicity 1 uM (Neuronal cortical cells; [5]): 92
Test Compound Cytoxicity 10 uM (Neuronal cortical cells; [6]): 90
Viable 10 uM (Neuronal cortical cells; [6]): 94.55

Oc1cccc2ccc(CN(Cc3ccccn3)Cc3nccs3)nc12 [compound 1003]
IC50 [3]: 550 nM
% inhibition Abeta toxicity [2]: 17%
Test Compound Cytoxicity 1 uM (Neuronal cortical cells; [5]): 97
Test Compound Cytoxicity 10 uM (Neuronal cortical cells; [6]): 38

CN(c1ccccn1)c1ccc2c(Cl)cc(Cl)c(O)c2n1 [compound 1056, 5,7-Dichloro-8-hydroxy-2-(methyl-pyridin-2-yl-amino)-quinoline]
IC50 [3]: 690 nM
% inhibition Abeta toxicity [2]: 39%
Test Compound Cytoxicity 1 uM (Neuronal cortical cells; [5]): 96.44
Test Compound Cytoxicity 10 uM (Neuronal cortical cells; [6]): 68.25
Viable 10 uM (Neuronal cortical cells; [6]): 68.25

Oc1ccccc1-c1cc(Cl)c2cccnc2c1O [compound 947]
BAS Score [1, 4]: +
% inhibition Abeta toxicity [2]: 3%
Test Compound Cytoxicity 0.1 um (Neuronal cortical cells; BL6J×129sv, mouse, 4 days): 100%
Test Compound Cytoxicity 1 uM (Neuronal cortical cells; [5]): 94
Test Compound Cytoxicity 10 uM (Neuronal cortical cells; [6]): 51
Viable 10 uM (Neuronal cortical cells; [6]): 70.4

Oc1cccc2cccnc12 [compound 42]
BAS Score [1]: +
% inhibition Abeta toxicity [2]: 14%
Cell viability (% viable cells, MTS) (Neuronal cortical cells; 1 uM, 4 days, in %): 87
Viable 10 uM (Neuronal cortical cells; 10 uM test compound, repeated lines = repeat determinations, in %): 97.66
Cell viability (% viable cells, MTS) (Neuronal cortical cells; 10 uM, 4 days, in %): 79
Cell viability (% viable cells, MTS) (Neuronal cortical cells; 0.1 um, 4 days): 90%

O/N=C/c1ccc2c(Cl)cc(Cl)c(O)c2n1 [compound 1031]
IC50 [3]: 760 nM
% inhibition Abeta toxicity [2]: 8%
Test Compound Cytoxicity 1 uM (Neuronal cortical cells; [5]): 85
Test Compound Cytoxicity 10 uM (Neuronal cortical cells; [6]): 81

Oc1cccc2ccc(CN(CCc3c[nH]cn3)Cc3nccs3)nc12 [compound 1002]
IC50 [3]: 390 nM
% inhibition Abeta toxicity [2]: 17%
Test Compound Cytoxicity 1 uM (Neuronal cortical cells; [5]): 82
Test Compound Cytoxicity 10 uM (Neuronal cortical cells; [6]): 34

Oc1cccc2ccc(CN(CCc3c[nH]cn3)Cc3ccccn3)nc12 [compound 1009]
IC50 [3]: 320 nM
% inhibition Abeta toxicity [2]: 16%
Test Compound Cytoxicity 1 uM (Neuronal cortical cells; [5]): 94
Test Compound Cytoxicity 10 uM (Neuronal cortical cells; [6]): 32

Oc1c(Cl)cc(-c2cccnc2)c2cccnc12 [compound 1057, 7-chloro-5-(pyridin-3-yl)-quinolin-8-ol]
IC50 [3]: 430 nM
% inhibition Abeta toxicity [2]: 4%
Test Compound Cytoxicity 1 uM (Neuronal cortical cells; [5]): 101.84
Test Compound Cytoxicity 10 uM (Neuronal cortical cells; [6]): 95.02
Viable 10 uM (Neuronal cortical cells; [6]): 95.02

O=C(O)c1ccc2c(Cl)cc(Cl)c(O)c2n1 [compound 1039]
IC50 [3]: > 10000 nM
% inhibition Abeta toxicity [2]: 9%
Test Compound Cytoxicity 1 uM (Neuronal cortical cells; [5]): 94
Test Compound Cytoxicity 10 uM (Neuronal cortical cells; [6]): 87
